Data published in patent publication US8993330B2, “Composition for a mitotic remodeling of chromosomes” (Centre National de la Recherche Scientifique, priority 2005, dated 2015).

Assays:
[1] = tested on: erythrocyte nuclei; assay: DNA replication of erythrocyte nuclei in Xenopus egg extracts (32P-dCTP incorporation, TCA precipitation); type: biochemical; settings: for replication rate of erythrocyte nuclei: permeabilized erythrocyte nuclei in S-phase extract, 300 μM TSA, 600 μM CTPB or 300 μM AA
Experimental: FIG. 1B: Permeabilized erythrocyte nuclei were incubated in S-phase or M-phase extract for 45 minutes before CaCl2 activation to trigger S phase. 5 μl samples were taken at different times. DNA replication was monitored by TCA precipitation of ^32PαdCTP incorporated into DNA and expressed as the percentage replicated DNA compared to the total input DNA. Sperm nuclei incubated in S-phase extract were used as a control.
(§1) 5 μl samples were taken at different times and DNA replication was monitored by TCA precipitation of ^32PαdCTP incorporated into DNA.
FIG. 5A: Erythrocyte chromatin was incubated either in M-phase extract and immediately driven into S phase by Ca^++, or in M-phase extract for 45 min before induction into S phase by Ca^++ in the absence or presence of ICRF. Control sperm chromatin in M-phase extracts induced to enter S phase by calcium is shown. The amount of nuclei was 1000 nuclei/μl egg extract for sperm nuclei, and 500 nuclei/μl egg extract for erythrocyte nuclei to keep the chromatin concentration constant.
(§2) Demembranated sperm nuclei were prepared and used as described in (Menut et al., 1999), and erythrocyte nuclei were purified from Xenopus blood as described. Nuclei were incubated in S-phase (1,000 nuclei/μl), or M-phase (CSF) extracts that were activated with 1 mM CaCl2. DNA synthesis was measured by ^32P-dCTP incorporation, as previously described (Menut et al., 1999).

[2] = tested on: sperm nuclei; assay: DNA replication of sperm nuclei in Xenopus S-phase egg extract (32P-dCTP incorporation, TCA precipitation); type: biochemical; settings: for replication rate of sperm chromatin: 300 μM TSA and 300 μM CTPB
Experimental: as §1
Sperm chromatin was incubated in S-phase extract in the presence of 50 μg/ml ICRF193 at the beginning of the reaction or after 45 min (during the elongation phase). DNA replication was monitored by TCA precipitation of the replicated DNA.
as §2

[3] = tested on: erythrocyte or sperm nuclei; assay: Chromosome condensation of nuclei in mitotic egg extract (Hoechst staining); type: biochemical, Xenopus; settings: erythrocyte or sperm nuclei in M-phase extract; 50 μg/ml
Experimental: FIG. 5B: Demembranated erythrocyte nuclei or sperm nuclei were incubated in a mitotic egg extract in the presence or absence of 50 μg/ml of the topoisomerase II inhibitor ICRF193. DNA was stained with Hoechst dye for chromosome formation analysis.

[4] = tested on: chromatin loop domains; assay: DNA loop size by maximum fluorescent halo technique (MFHT); type: biochemical, Xenopus
Experimental: FIG. 4D: Nuclei were recovered on coverslips and submitted to the maximum fluorescent halo technique (MFHT) for DNA loop size measurements (Material and Methods).
FIG. 7C: Sperm nuclei collected at different times during replication or following M-phase were recovered on coverslips and submitted to MFHT for DNA loop size measurements. Entry into mitosis was induced by incubating post-replicate embryo nuclei in M-phase extract in the presence or absence of ICRF.
Maximum Fluorescent Halo Radius (MFHR) were determined by treating non-fixed nuclei on coverslips. They were first dipped for 1 min in ice cold NP40 buffer (0.5% NP40, 10 mM MgCl2, 0.5 mM CaCl2, 50 mM Hepes pH 7.8) and then sequentially dipped for 30 s in a solution containing 0.2 mM MgCl2, 10 mM Tris (pH 7.4) with 0.5 M, 1 M, 1.5 M, 2 M NaCl. They were then incubated in 100 μg/ml ethidium bromide, 2 M NaCl and exposed for 1 min to short wave UV light before observation by fluorescence (Buongiorno-Nardelli et al., 1982). Halo and matrix diameters were estimated using a micrometrics slide. DNA loop size was calculated taking into account that the loop size is 2 fold the MFHR. The length of linear DNA was calculated using the correspondence of 1 μm to 2.3 kbp.

[5] = tested on: ORC2; assay: ORC2 recruitment to chromatin (chromatin purification, anti ORC2 immunoblot); type: biochemical, Xenopus
Experimental: FIG. 5C: Chromatin was purified and proteins analyzed by SDS gel electrophoresis as described in Material and Methods. Erythrocyte nuclei (500 nuclei/μl egg extract) or sperm nuclei (1000 nuclei/μl egg extract) were incubated in a mitotic egg extract, induced to enter S phase with calcium, in the presence (+) or absence (−) of ICRF 193. Chromatin was purified 30 min after calcium activation and analyzed by immunoblot with a Xenopus anti ORC2 antibody.
50 μl samples were diluted with 5 volumes of extract buffer (XB: 100 mM KCl, 0.1 mM CaCl2, 1 mM MgCl2, 10 mM KOH-Hepes pH 7.7, 50 mM sucrose) and pelleted by centrifugation at 7500 g for 12 min through a 0.7 M sucrose cushion. Nuclear pellets were resuspended in XB, 0.3% Triton X-100 and incubated for 5 min on ice. After a further 5,000 g centrifugation for 5 min, chromatin pellets were recovered and adjusted in Laemmli Buffer.

[6] = sperm nuclei in S-phase extract
[7] = inhibitor present during mitotic remodeling in M-phase extract, chromatin purified 30 min after calcium activation

Molecule: CC(/C=C/C(=O)NO)=C\[C@@H](C)C(=O)c1ccc(N(C)C)cc1 [TSA, trichostatin]
- replication rate of erythrocyte nuclei [1]: failed to significantly affect
- replication rate of sperm chromatin [2, 6]: no significant effect

Molecule: ICRF 193
- chromosome condensation [3]: prevented chromosome condensation
- mitotic remodeling (loop size reduction) of post-replicative nuclei ([4]; post-replicative embryonic nuclei in M-phase extract): blocked
- S-phase dependent increase in loop size ([4]; sperm nuclei during replication in S phase, data not shown): prevented
- rate of replication of erythrocyte nuclei ([1]; 45 min in M-Phase extract containing ICRF 193 before S phase induction): very low rate of replication
- ORC recruitment ([5]; inhibition of loop size remodeling, post-replicative embryonic nuclei and erythrocyte nuclei): decreases
- recruitment of ORC2 onto erythrocyte chromatin for the subsequent S-phase [5, 7]: dramatically reduced
- recruitment of ORC2 onto sperm chromatin for the subsequent S-phase [5, 7]: not
- DNA replication of sperm chromatin ([2]; S-phase extract, 50 μg/ml at the beginning of the reaction or after 45 min): does not interfere with DNA replication

Molecule: CCCCCCCCCCCCCCCc1cccc(OCC)c1C(=O)Nc1ccc(Cl)c(C(F)(F)F)c1 [CTPB]
- replication rate of erythrocyte nuclei [1]: failed to significantly affect
- reversal of AA inhibition of sperm nuclei replication ([2]; S-phase extract, prior incubation of 600 μM CTPB, 300 μM AA): reversed
- replication rate of sperm chromatin [2, 6]: no significant effect

Molecule: CCCCCCCCCCCCCCCc1cccc(O)c1C(=O)O [AA, anacardic acid]
- sensitivity of replication of erythrocyte nuclei remodeled in mitosis ([1]; 45 min in M-phase extract, then S-phase extract containing 300 μM AA): as sensitive as sperm nuclei
- replication rate of erythrocyte nuclei [1]: did not further inhibit
- replication of sperm nuclei ([2]; sperm nuclei in S-phase extract, 300 μM AA): strongly inhibited
